Test results from ChEMBL document CHEMBL3525920, “CYP4F enzymes are responsible for the elimination of fingolimod (FTY720), a novel treatment of relapsing multiple sclerosis” (Drug Metab Dispos, 2011).

How the values were obtained:
[1] = Terminal half life in human; format: ADME, organism-based; set-up: dosed compound name Fingolimod; conditions: in vivo, read-out: beta t1/2 (converted)
[2] = Retention time of the compound by C18 advantage armor column based LC-MS analysis; format: physicochemical
[3] = Retention time of the compound by symmetry C18 column based LC-MS analysis; format: physicochemical
Cytochrome P450 4F3 = Cytochrome P450 4F3 (Homo sapiens, UniProt Q08477); assay: Activity at human recombinant CYP4F3B expressed in baculovirus-infected BTI-TN-5B1-4 insect cell microsomes assessed as relative abundance of compound formation treated with [14C]fingolimod at 100 uM after 30 mins by HPLC-RA analysis; format: ADME; conditions: bti-tn-5b1-4, 0.5 h
Cytochrome P450 2D6 = Cytochrome P450 2D6 (Homo sapiens, UniProt P10635); assay: Activity at human recombinant CYP2D6 expressed in baculovirus-infected BTI-TN-5B1-4 insect cell microsomes assessed as relative abundance of compound formation treated with [14C]fingolimod at 20 uM after 30 mins by HPLC-RA analysis; format: ADME; conditions: bti-tn-5b1-4, 0.5 h
[4] = Retention time of the compound by long gradient-based HPLC-RA analysis; format: physicochemical
Cytochrome P450 4F2 [5] = target: T1, Cytochrome P450 4F2 (Homo sapiens, UniProt P78329); assay: Activity at human recombinant CYP4F2 expressed in baculovirus-infected BTI-TN-5B1-4 insect cell microsomes assessed as relative abundance of compound formation treated with [14C]fingolimod at 100 uM after 30 mins by HPLC-RA analysis; format: ADME; conditions: bti-tn-5b1-4, 0.5 h
T1 sequence (P78329 whole entry): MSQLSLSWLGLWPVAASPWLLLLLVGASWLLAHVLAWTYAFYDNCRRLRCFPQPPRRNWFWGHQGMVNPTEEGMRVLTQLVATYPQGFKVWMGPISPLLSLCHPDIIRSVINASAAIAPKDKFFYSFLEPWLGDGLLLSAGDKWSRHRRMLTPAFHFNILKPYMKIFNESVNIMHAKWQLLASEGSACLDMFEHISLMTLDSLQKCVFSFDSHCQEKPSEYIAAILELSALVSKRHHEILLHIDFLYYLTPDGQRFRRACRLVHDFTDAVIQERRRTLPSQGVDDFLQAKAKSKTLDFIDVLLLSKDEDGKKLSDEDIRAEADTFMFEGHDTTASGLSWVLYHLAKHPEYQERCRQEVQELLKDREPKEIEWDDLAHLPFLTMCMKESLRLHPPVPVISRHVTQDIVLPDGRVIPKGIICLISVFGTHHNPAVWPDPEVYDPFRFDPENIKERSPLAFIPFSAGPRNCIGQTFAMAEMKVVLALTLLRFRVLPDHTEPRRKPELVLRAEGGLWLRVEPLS

Cytochrome P450 4F2 [6] = target: T1, Cytochrome P450 4F2; assay: Inhibition of human CYP4F2 in human liver microsomes assessed as fingolimod metabolism; format: ADME
Cytochrome P450 4F2 [7] = target: T1, Cytochrome P450 4F2; assay: Inhibition of human recombinant CYP4F2 assessed as fingolimod metabolism; format: ADME
[8] = substrate: CCCCCCCCc1ccc(CCC(N)(CO)CO)cc1; assay: Activity at human recombinant CYP4F2 expressed in baculovirus-infected BTI-TN-5B1-4 insect cell microsomes assessed as metabolite formation after 15 mins by Eadie-Hofstee plot analysis; format: ADME

Cytochrome P450 4F3, sequence (Q08477 whole entry): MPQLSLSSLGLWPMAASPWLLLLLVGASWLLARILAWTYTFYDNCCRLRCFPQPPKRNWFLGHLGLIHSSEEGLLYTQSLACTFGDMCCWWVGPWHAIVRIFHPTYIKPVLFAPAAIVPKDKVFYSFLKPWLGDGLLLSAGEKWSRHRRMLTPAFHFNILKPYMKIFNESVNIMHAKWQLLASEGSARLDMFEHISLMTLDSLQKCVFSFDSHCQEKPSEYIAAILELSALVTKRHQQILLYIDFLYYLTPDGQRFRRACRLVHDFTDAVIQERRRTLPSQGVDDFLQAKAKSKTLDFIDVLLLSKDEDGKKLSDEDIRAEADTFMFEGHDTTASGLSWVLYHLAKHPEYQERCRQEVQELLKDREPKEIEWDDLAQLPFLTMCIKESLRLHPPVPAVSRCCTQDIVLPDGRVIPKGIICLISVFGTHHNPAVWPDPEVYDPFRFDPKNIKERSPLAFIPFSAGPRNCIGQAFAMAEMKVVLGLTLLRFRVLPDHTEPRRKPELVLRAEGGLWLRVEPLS
Cytochrome P450 2D6, sequence (P10635 whole entry): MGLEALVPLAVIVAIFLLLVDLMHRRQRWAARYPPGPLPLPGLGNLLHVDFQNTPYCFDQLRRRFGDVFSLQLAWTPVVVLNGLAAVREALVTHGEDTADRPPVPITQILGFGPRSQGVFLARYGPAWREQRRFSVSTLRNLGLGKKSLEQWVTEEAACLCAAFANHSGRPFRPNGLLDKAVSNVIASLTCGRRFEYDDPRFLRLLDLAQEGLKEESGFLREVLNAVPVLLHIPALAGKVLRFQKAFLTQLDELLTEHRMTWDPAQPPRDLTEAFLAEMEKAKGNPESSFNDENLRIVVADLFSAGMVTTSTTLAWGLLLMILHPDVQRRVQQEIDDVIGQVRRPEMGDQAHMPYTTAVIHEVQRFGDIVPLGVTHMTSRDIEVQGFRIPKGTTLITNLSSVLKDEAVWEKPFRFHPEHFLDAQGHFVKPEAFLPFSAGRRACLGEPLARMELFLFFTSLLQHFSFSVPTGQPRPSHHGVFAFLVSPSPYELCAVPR

CCCCCCCCc1ccc(CCC(N)(CO)CO)cc1 [FINGOLIMOD]
half-life [1]: 120 h

NC(CO)(CO)CCc1ccc(CCCCCCCCO)cc1
Retention_time [2]: 35.4 min
Retention_time [3]: 32.1 min
Compound recovery (Cytochrome P450 4F3): 0.84%
Compound recovery (Cytochrome P450 2D6): 1.02%
Retention_time [4]: 34.7 min
Compound recovery (Cytochrome P450 4F2 [5]): 2.99%

CC(=O)N1CCN(c2ccc(OCC3COC(Cn4ccnc4)(c4ccc(Cl)cc4Cl)O3)cc2)CC1 (stereo unspecified) [KETOCONAZOLE]
Ki (Cytochrome P450 4F2 [6]): 740 nM
IC50 (Cytochrome P450 4F2 [7]): 1600 nM

B1: Cytochrome P450 4F2 (Homo sapiens) (protein)
chain: MSQLSLSWLGLWPVAASPWLLLLLVGASWLLAHVLAWTYAFYDNCRRLRCFPQPPRRNWFWGHQGMVNPTEEGMRVLTQLVATYPQGFKVWMGPISPLLSLCHPDIIRSVINASAAIAPKDKFFYSFLEPWLGDGLLLSAGDKWSRHRRMLTPAFHFNILKPYMKIFNESVNIMHAKWQLLASEGSACLDMFEHISLMTLDSLQKCVFSFDSHCQEKPSEYIAAILELSALVSKRHHEILLHIDFLYYLTPDGQRFRRACRLVHDFTDAVIQERRRTLPSQGVDDFLQAKAKSKTLDFIDVLLLSKDEDGKKLSDEDIRAEADTFMFEGHDTTASGLSWVLYHLAKHPEYQERCRQEVQELLKDREPKEIEWDDLAHLPFLTMCMKESLRLHPPVPVISRHVTQDIVLPDGRVIPKGIICLISVFGTHHNPAVWPDPEVYDPFRFDPENIKERSPLAFIPFSAGPRNCIGQTFAMAEMKVVLALTLLRFRVLPDHTEPRRKPELVLRAEGGLWLRVEPLS
Km [8]: 45 µM
Vmax [8]: 0.00105 µmol/min
